Data on 5 compounds can be found in patent US12370202B2, “Methods and compositions for inhibiting the NLRP3 inflammasome and/or LON protease” (TRITERPENOID THERAPEUTICS, INC., priority 2019, dated 2025).

The test system of one test is NLRP3. In words: Mono-sodium urate (MSU)-induced peritonitis. The conditions noted are these: MSU crystals 1 mg/mouse i.p.; lavage four to sixteen hours later. In kind it is in vivo, Mice. The method, then: FIG. 7 is a bar graph. CDDO-Im, CDDO-2P-Im, and CDDO-3P-Im inhibit mono-sodium urate (MSU)-induced peritonitis. Peritoneal cavity IL-1β levels expressed as mean and SEM (n=6).
Mice received intraperitoneal (i.p.) injections of mono-sodium urate (MSU) crystals (1 mg/mouse) in the presence or absence of CDDO-Im, CDDO-2P-Im, or CDDO-3P-Im. Due to its particulate material, MSU crystals are potent activators of the NOD-like receptor NLRP3. Four to sixteen hours later a peritoneal lavage was conducted to collect supernatant from the peritoneal cavity.

For another test, the system named is Caspase 1. Briefly: Caspase 1 activation in LPS-primed BMDM, immunoblotting (caspase-p10). It is filed as cell-based, mouse. To be noted: different doses (30-1000 nM) 15 min before ATP (5 mM) 45 min. The method, then: FIG. 5 depicts a Western blot. CDDO-Im, CDDO-2P-Im, and CDDO-3P-Im inhibit Caspase 1 activation. LPS primed BMDM were treated with different doses of CDDO-Im, CDDO-2P-Im, or CDDO-3P-Im for 15 min before ATP (5 mM) was added for 45 min. Medium supernatant (SUP) and cell extracts (Lys) were analyzed by immunoblotting.
(§1) The effects of the pyridyl derivatives of CDDO-IM, (specifically, CDDO-2P-Im and CDDO-3P-Im) on NLRP3 inflammasome activation were tested in mouse BMDMs. Cells were first primed with LPS for 4 hours, then pretreated with specific doses of either CDDO-Im, CDDO-2P-IM or CDDO-3P-Im (30-1000 nM) for 15 min before ATP was added for another 45 min. CDDO-Im and its pyridyl derivatives inhibited the amount of caspase-p10 (an auto-processed fragment of caspase-1) released into cell culture supernatants in a dose-dependent manner as measured by Western blot (FIG. 5). […] The effect on caspase-1 activation is specific for the NLRP3 inflammasome as the AIM2 inflammasome activation by poly(dA:dT) was not inhibited by the synthetic CDDO-Im derivatives (data not shown).
(In general: In western blotting, separated proteins are transferred to a membrane and probed.)

The next test concerns CCL2. In words: CCL2 expression in LPS-stimulated human macrophages, RT-qPCR. The conditions noted are these: 16 hours pretreatment, then 10 ng/ml LPS 24 hours. It is filed as cell-based. As for the experimental part:
FIG. 10 is a bar graph. CDDO-Me, CDDO-Im, CDDO-2P-Im, and CDDO-3P-Im inhibit expression of CCL2 in human macrophages at picomolar concentrations.
Human peripheral blood monocytes were isolated using CD14 magnetic beads and differentiated with 20 ng/ml M-CSF for with 5 days and pretreated or not with 300 nM CDDO-Me; 500 pM CDDO-Im; 500 pM CDDO-2p-Im; 500 pM CDDO-3p-Im for 16 hours, followed by stimulation with 10 ng/ml LPS for an additional 24 hours. Total RNA was extracted and analyzed by RT-qPCR (Tagman) for cytokine expression.
(Quantitative PCR measures a nucleic acid by following its amplification.)

A further test deals with NLRP3 inflammasome. In words: NLRP3 inflammasome activation in LPS-primed BMDM, IL-1β ELISA. The conditions noted are these: for IL-1β production by NLRP3 inflammasome activation: LPS primed BMDM, different doses (30-1000 nM) 15 min before ATP (5 mM) 45 min, ELISA. In kind it is cell-based, mouse. As for the experimental part:
FIG. 4A depicts an experimental design and FIG. 4B is a bar graph. Ixazomib (IXZ) potentiation of NLRP3 inflammasome activation inhibited by CDDO-2P-Im. Bone marrow derived macrophages (BMDM) were treated with Ixazomib (IXZ) and LPS (100 ng/ml) for 20 hours. Primed-BMDM were treated with CDDO-2P-Im (100 nM) for 15 min, followed by stimulation of ATP (5 mM) for 45 min. Supernatant were analyzed by ELISA for IL-1β release.
FIG. 6 is a set of bar graphs. CDDO-Im, CDDO-2P-Im (right panel), and CDDO-3P-Im (left panel) inhibit IL-1β production by NLRP3 inflammasome activation. LPS primed-BMDM were treated with different doses of CDDO-Im, CDDO-2P-Im, or CDDO-3P-Im for 15 min before ATP (5 mM) was added for 45 min. Supernatant were analyzed by ELISA for IL-1β.
To explore the potential that CDDO-2P-IM may enhance the MM response to proteasome inhibitors via inhibition of inflammasome activity, the effect of CDDO-2P-IM on activation of the NLRP3 complex (as defined by IL-1β production), in the presence or absence of IXZ in primary mouse bone marrow derived macrophages (BMDM) was evaluated. In the experiment, BMDM were primed by lipopolysaccharide (LPS) in the presence or absence of IXZ for 4 hours, followed by a brief ([…]) exposure to CDDO-2P-IM after which inflammasome activation was triggered by ATP.
as §1

The test system of the next test is 5T33MM cells. Briefly: MM cell proliferation (confluence), IncuCyte imaging. In kind it is cell-based, murine. The conditions noted are these: 50 nM TTX01 or 7.5 nM IXZ alone, 72 hours. The method, then:
(§2) FIG. 2 is a bar graph. CDDO-2P-Im inhibits proliferation of multiple myeloma cell line in vitro. 5T33MM, RPMI8226, and ARH77 cells were seeded in 96-well plates and incubated with CDDO-2P-Im (50 nM-150 nM). Confluence (cell proliferation) was measured using IncuCyte imaging after 72 hours. *p<0.01 compared to control.
(§3) FIG. 3 is a bar graph. […] Shown here are results for 5T33MM (50 nM TTX01/7.5 nM IXZ); RPMI8226 (100 nM TTX01/7.5 nM IXZ); and ARH77 (150 nM TTX01/10 nM IXZ). Confluence (cell proliferation) was measured using IncuCyte imaging after 72 hours.
(§4) To examine tumor-intrinsic effects of CDDO-2P-IM in the 5T33MM cell line and in human MM cells, conducted a series of in vitro studies was conducted. For these experiments, 96-well plates were first coated in poly-L-ornithine before cells were seeded (in triplicate), including the murine 5T33MM and the human RPMI8226, and ARH77 cell lines (15,000 cells per well). Cells were incubated in IncuCyte™ Live-Cell Analysis System for 72 hours (images were taken every 4 hours). To define dose-dependent effect of CDDO-2P-IM, cells were exposed to concentrations ranging from 50 nM to 150 nM. To examine potential synergy of CDDO-2P-IM with IXZ, MM cells were exposed to IXZ (7 nM-10 nM) either alone or in combination with CDDO-2P-IM.

The subject of the next test is RPMI8226 cells. Described as above. To be noted: 100 nM TTX01 or 7.5 nM IXZ alone, 72 hours. It is filed as cell-based, human. The method, then: as §2, §3, §4
Another test relates to ARH77 cells. Described as above. It is filed as cell-based, human. The conditions noted are these: 150 nM TTX01 or 10 nM IXZ alone, 72 hours. The method, then:
as §2, §3, §4

A further test relates to OVCAR-8. In words: Ovarian cancer cell growth (confluence), IncuCyte ZOOM. It is filed as cell-based, human. To be noted: cisplatin dose used in the combination. The text has this: (§5) FIG. 11 is a set of line graphs. Cisplatin resistant human ovarian cancer cell lines A2780, CP70, OV81, CP10, OVCAR-5 and OVCAR-8 were exposed to CDDO-2P-Im, cisplatin, or a combination of CDDO-2P-Im and cisplatin.
(§6) CDDO-2P-Im suppresses growth of cisplatin-resistant human ovarian cancer cells in vitro. Cisplatin resistant human ovarian cancer cell lines A2780, CP70, OV81, CP10, OVCAR-5 and OVCAR-8 cell were each cultured in a complete medium consisting of RPMI1640, 20% heat-inactivated FBS, 1% penicillin/streptomycin. Cells were cultured in a water jacketed CO2 incubator at 37° C. in a humidified atmosphere consisting of 5% CO2 and 95% air. Continuous live-cell analysis (CLCA) was used as a non-invasive cell monitoring and measurement method based on time-lapse, phase-contrast microscopy and fluorescence imaging, using IncuCyte® ZOOM. Cells were seeded in 96-well plates at densities of either 1×10^4 or 3×10^4 cell/cm^2 followed by addition of a drug dilution series for either CDDO-2P-Im or Cisplatin (P4394, Sigma) dissolved in PBS and diluted in media. […] Reduction in confluence is accompanied by the detachment and death of ovarian cancer cells.

A further test has as its system OV81. Described as above. It is filed as cell-based, human. To be noted: cisplatin dose used in the combination.
Excerpt: as §5, §6

A further test has as its system CP10. The description is as above. The conditions noted are these: cisplatin dose used in the combination. In kind it is cell-based, human.
Excerpt: as §5, §6

For another test, the system named is A2780. The description is as above. It is filed as cell-based, human. The conditions noted are these: cisplatin dose used in the combination.
Excerpt: as §5, §6

In the next test the test system is CP70. The test is described as above. It is filed as cell-based, human. To be noted: cisplatin dose used in the combination.
Excerpt: as §5, §6

The next test concerns OVCAR-5. The test is described as above. In kind it is cell-based, human. To be noted: cisplatin dose used in the combination.
Excerpt: as §5, §6

Each structure is given as a SMILES string.

On to `CC1(C)CC[C@]2(C(=O)n3cnc(-c4cccnc4)c3)CC[C@]3(C)[C@H](C(=O)C=C4[C@@]5(C)C=C(C#N)C(=O)C(C)(C)[C@@H]5CC[C@]43C)[C@@H]2C1` [CDDO-3P-Im, 1-[2-Cyano-3,12-dioxooleana-1,9(11)-dien-28-oyl]-4(-pyridin-3-yl)-1H-imidazole], for which, in the test with NLRP3, the “MSU-induced peritonitis (peritoneal cavity IL-1β levels)” value was “inhibit”. For the same compound, the “Caspase 1 activation (caspase-p10 released into supernatant)” value in the test on Caspase 1 is “inhibit”. Also, the “expression of CCL2” value in the test with CCL2 (500 pM) is “inhibit”. Further, in the test on NLRP3 inflammasome, the “IL-1β production by NLRP3 inflammasome activation” value is given as “inhibit”.

`CC1(C)CC[C@]2(C(=O)n3ccnc3)CC[C@]3(C)[C@H](C(=O)C=C4[C@@]5(C)C=C(C#N)C(=O)C(C)(C)[C@@H]5CC[C@]43C)[C@@H]2C1` [CDDO-Im, 1-(2-cyano-3,12-dioxooleana-1,9(11)-dien-28-oyl) imidazole, reference compound]: the “MSU-induced peritonitis (peritoneal cavity IL-1β levels)” value with NLRP3 is listed as “inhibit”. Further, in the test on Caspase 1, the “Caspase 1 activation (caspase-p10 released into supernatant)” value was “inhibit”. The “expression of CCL2” value with CCL2 (500 pM) was “inhibit”. For the same compound, the “IL-1β production by NLRP3 inflammasome activation” value in the test on NLRP3 inflammasome is listed as “inhibit”.

For `COC(=O)[C@]12CCC(C)(C)C[C@H]1[C@H]1C(=O)C=C3[C@@]4(C)C=C(C#N)C(=O)C(C)(C)[C@@H]4CC[C@@]3(C)[C@]1(C)CC2` [CDDO-Me, reference compound], the “expression of CCL2” value in the test on CCL2 (300 nM) is “inhibit”.

Consider `CC(C)C[C@H](NC(=O)CNC(=O)c1cc(Cl)ccc1Cl)B(O)O` [IXZ, reference compound], for which the “proliferation (confluence), agent added alone” value in the test on 5T33MM cells, in the test with RPMI8226 cells and in the test on ARH77 cells was “only partially effective” each time. The “IL-1β release (NLRP3 inflammasome activation), effect of IXZ during LPS priming” value in the test on NLRP3 inflammasome (BMDM, IXZ and LPS (100 ng/ml), ATP (5 mM) 45 min) is listed as “potentiation”.

As to `N.N.[Cl][Pt][Cl]` [cisplatin, cis-diamminedichloroplatinum(II), reference compound], the “ovarian cancer cell kill, cisplatin alone” value in the test with OVCAR-8, in the test on OV81, in the test on CP10, in the test on A2780, in the test with CP70 and in the test with OVCAR-5 was “absolutely no effect” throughout.
